Test results: PubChem BioAssay (NCI)
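Five compound concentrations were applied to cells in 96-well plates for 48 hours; endpoints were derived by simple linear interpolation of the resulting dose-response curve. TGI marks complete inhibition of growth.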 Where a SMILES comes first, the peptide text is derived from it. The star is where a group is joined. Cbz = O=C(OCc1ccccc1)*

Legend:
Test in all cases: inhibition of tumour cell growth, NCI panel, 48 h
[1] = test system: UACC-257 melanoma
[2] = test system: DU-145 prostate
[3] = test system: T-47D breast
[4] = test system: HOP-62 NSCLC
[5] = test system: MCF7 breast
[6] = test system: K-562 leukemia
[7] = test system: HL-60(TB) leukemia
[8] = test system: MDA-MB-231 breast
[9] = test system: HOP-92 NSCLC
[10] = test system: CCRF-CEM leukemia
[11] = test system: SK-MEL-28 melanoma
[12] = test system: OVCAR-5 ovarian
[13] = test system: SK-MEL-2 melanoma
[14] = test system: NCI-H522 lung
[15] = test system: MDA-N
[16] = test system: UACC-62 melanoma
[17] = test system: ACHN renal
[18] = test system: M14 melanoma
[19] = test system: 786-0 renal
[20] = test system: EKVX NSCLC

Compound	TGI [1]	TGI [2]	TGI [3]	TGI [4]	TGI [5]	TGI [6]	TGI [7]	TGI [8]	TGI [9]	TGI [10]	TGI [11]	TGI [12]	TGI [13]	TGI [14]	TGI [15]	TGI [16]	TGI [17]	TGI [18]	TGI [19]	TGI [20]
CCOC(=O)CN1C(=O)c2ccc(NC(=O)C(=O)O)cc2S1(=O)=O	> 100 µM	> 100 µM	> 100 µM	> 100 µM	> 100 µM	> 100 µM	> 100 µM	> 100 µM	> 100 µM	> 100 µM	> 100 µM	> 100 µM	> 100 µM	> 100 µM	> 100 µM	> 100 µM	> 100 µM	> 100 µM	> 100 µM	> 100 µM
O=[N+]([O-])/C(C(Cl)=C(Cl)Cl)=C(/Cl)Sc1ccccc1	2.55 µM	11.2 µM	7.47 µM	9.33 µM	2.99 µM	2.4 µM	0.318 µM	3.4 µM	3.85 µM	0.435 µM	3.28 µM	3.9 µM	27.4 µM	4.42 µM	3.78 µM	3.36 µM	3.93 µM	3.24 µM	2.62 µM	33.4 µM
CC(O)C1(CNc2cc(Cl)nc(N)n2)CCC1 (stereo not given)	> 100 µM	> 100 µM	> 100 µM	> 100 µM	> 100 µM	> 100 µM	> 100 µM	> 100 µM	> 100 µM	> 100 µM	> 100 µM	> 100 µM	> 100 µM	> 100 µM	> 100 µM	> 100 µM	> 100 µM	–	> 100 µM	> 100 µM
Clc1ccc(C2C3COc4ccccc4C3=NN2c2ccccc2)cc1 (stereo not given)	> 100 µM	> 100 µM	> 100 µM	> 100 µM	> 100 µM	21.9 µM	> 68.2 µM	> 100 µM	> 100 µM	> 37.7 µM	> 100 µM	> 100 µM	> 100 µM	> 100 µM	> 67.4 µM	> 100 µM	> 100 µM	> 100 µM	> 96.4 µM	> 100 µM
CC(CO)(CO)N1C(=O)C2C3C=CC(C3)C2C1=O (stereo not given)	> 100 µM	> 100 µM	> 100 µM	> 100 µM	> 100 µM	> 100 µM	> 100 µM	> 100 µM	> 100 µM	> 100 µM	> 100 µM	> 100 µM	> 100 µM	> 100 µM	> 100 µM	> 100 µM	> 100 µM	> 100 µM	> 100 µM	> 100 µM
COc1cc(C2c3cc4c(cc3OC3(OC)COC(=O)C23)OCO4)cc(OC)c1OC(C)=O (stereo not given)	> 100 µM	> 100 µM	> 100 µM	31.7 µM	> 36.4 µM	> 100 µM	12.8 µM	> 100 µM	> 100 µM	> 100 µM	> 100 µM	> 41.4 µM	> 100 µM	2.43 µM	2.55 µM	> 100 µM	> 100 µM	> 74.2 µM	> 100 µM	> 100 µM
Cc1ccnc2[nH]c3ccccc3c(=O)c12	> 100 µM	> 100 µM	> 100 µM	> 100 µM	> 100 µM	> 100 µM	61.3 µM	> 100 µM	> 100 µM	> 100 µM	47.5 µM	> 100 µM	68.7 µM	32.9 µM	47 µM	40 µM	> 100 µM	> 100 µM	> 100 µM	71.7 µM
CN=C(N=Nc1c(O)[nH]c2ccccc12)SCC(=O)c1ccc(Br)cc1	> 20 µM	30.5 µM	> 100 µM	20.7 µM	20.4 µM	> 100 µM	> 100 µM	19.8 µM	> 52.4 µM	30.8 µM	> 78.1 µM	> 88.8 µM	> 100 µM	> 56.7 µM	> 100 µM	> 100 µM	52.2 µM	39.3 µM	16 µM	> 62.8 µM
CN(C)CCCC12CCCCC1=Nc1ccccc12 (stereo not given)	> 100 µM	> 100 µM	> 100 µM	> 100 µM	> 100 µM	> 100 µM	76.3 µM	> 100 µM	> 100 µM	> 100 µM	> 100 µM	> 100 µM	> 100 µM	> 100 µM	> 100 µM	> 100 µM	> 100 µM	> 100 µM	> 100 µM	> 100 µM
CCOC(=O)CC[C@H](NC(=O)[C@H](N)Cc1ccc(N(CCCl)CCCl)cc1)C(=O)OCC	37.9 µM	43.9 µM	38.6 µM	> 59.6 µM	> 87.3 µM	> 100 µM	36.6 µM	> 58.8 µM	18.3 µM	> 49.6 µM	> 54.3 µM	65 µM	63.2 µM	18.3 µM	> 50.8 µM	15.2 µM	> 100 µM	21.8 µM	23.5 µM	> 67.9 µM
COc1cc2c(C)cc(O)cc2c2cc(O)c(C)cc12	22.8 µM	20.9 µM	20.5 µM	15.5 µM	20.5 µM	9.94 µM	13 µM	19.2 µM	22.3 µM	18.2 µM	–	24.3 µM	31.3 µM	27.3 µM	20 µM	22.3 µM	22.6 µM	6.67 µM	17.7 µM	22.6 µM
N#Cc1c(N)nc2n[nH]c(N)c2c1-c1ccc(Cl)cc1	> 100 µM	> 71.8 µM	4.62 µM	71.5 µM	19 µM	> 100 µM	> 100 µM	10.4 µM	6.14 µM	> 100 µM	> 100 µM	> 100 µM	6.57 µM	9.11 µM	> 100 µM	4.23 µM	9.69 µM	> 39.8 µM	> 60.8 µM	44 µM
Cc1nn(-c2ccccc2)c2c1C(c1ccc(Cl)cc1)NC(=S)N2 (stereo not given)	> 100 µM	> 100 µM	> 100 µM	80.1 µM	> 100 µM	> 100 µM	95.8 µM	51.2 µM	35.2 µM	72.8 µM	–	89.4 µM	38.6 µM	37.2 µM	93.6 µM	60.5 µM	38.4 µM	> 100 µM	36.8 µM	90.8 µM
CN(C)CCCN1CCC2(CCC(C(C)(C)C)CC2)CC1	2.76 µM	19.3 µM	3.99 µM	4.91 µM	3.07 µM	0.962 µM	2.23 µM	3.91 µM	10.1 µM	4.82 µM	3.36 µM	9.08 µM	3.26 µM	6.07 µM	2.44 µM	3.33 µM	18.8 µM	3.46 µM	3.09 µM	19.4 µM
CC(C)=CC[C@]12CCN[C@H]1N(S(=O)(=O)c1ccccc1)c1ccccc12	34.8 µM	> 100 µM	92.9 µM	29.1 µM	39.8 µM	56.9 µM	45.6 µM	58.5 µM	28.3 µM	> 100 µM	31.5 µM	> 100 µM	31.6 µM	30.1 µM	29.1 µM	29.2 µM	50.7 µM	–	32.2 µM	21.3 µM
CC(=O)c1[nH]c(NCc2ccccc2)c(C(=S)Nc2ccccc2)c1N	49.2 µM	> 100 µM	63.3 µM	40 µM	37.2 µM	76.1 µM	35.3 µM	34.1 µM	59.3 µM	> 100 µM	52 µM	55.1 µM	1.07 µM	0.166 µM	39.1 µM	32.5 µM	85.2 µM	33.7 µM	32.5 µM	> 100 µM
CC1OC(OC2C(O)COC(OC3C(C)OC(OC4C(OC(=O)[C@]56CCC(C)(C)C[C@@H]5C5=CCC7[C@@]8(C)C[C@H](O)[C@H](OC9OC(CO)C(O)C(O)C9O)[C@@](C)(CO)[C@@H]8CC[C@@]7(C)[C@]5(C)CC6)OCC(O)C4O)C(O)C3OC3OCC(O)(CO)C3O)C2O)C(O)C(O)C1O (stereo not given in full)	28.5 µM	30.3 µM	51.1 µM	34.5 µM	> 67.9 µM	> 75 µM	30.2 µM	30 µM	50.3 µM	44.7 µM	13.6 µM	24.3 µM	30.8 µM	35.7 µM	32.5 µM	31.6 µM	34 µM	10.4 µM	27.8 µM	15.8 µM
O=C(O)C(NCc1ccccc1)C(NCc1ccccc1)C(=O)O (stereo not given)	> 100 µM	> 100 µM	> 100 µM	> 100 µM	> 100 µM	> 100 µM	> 100 µM	> 100 µM	> 100 µM	> 100 µM	> 100 µM	–	> 100 µM	> 100 µM	> 100 µM	> 100 µM	> 100 µM	> 100 µM	> 100 µM	> 100 µM
NC(=O)C(C(N)=O)=C(O)C(=O)/C=C(\O)c1ccccc1	> 100 µM	> 100 µM	> 100 µM	> 100 µM	> 100 µM	29.9 µM	58.8 µM	> 100 µM	> 100 µM	52.5 µM	> 100 µM	> 100 µM	> 100 µM	36.2 µM	> 100 µM	> 100 µM	> 100 µM	> 100 µM	> 100 µM	> 100 µM
O=C(O)CCC(NC(=O)OCc1ccccc1)C(=O)NC(Cc1cnc[nH]1)C(=O)O (stereo not drawn) (Cbz-Glu-His-OH; configuration not given here)	> 100 µM	> 100 µM	> 100 µM	> 100 µM	> 100 µM	> 100 µM	> 100 µM	> 100 µM	> 100 µM	> 100 µM	> 100 µM	> 100 µM	> 100 µM	> 100 µM	> 100 µM	> 100 µM	> 100 µM	> 100 µM	> 100 µM	> 100 µM
Cc1nc2c(nc1C)-c1[nH]c3c(c1C(=O)C2=O)CCCC3=O	4.83 µM	23.5 µM	0.709 µM	6.76 µM	2.98 µM	5.59 µM	5.78 µM	3.4 µM	3.66 µM	5.16 µM	3.16 µM	4.7 µM	3.29 µM	4.42 µM	1.9 µM	3.25 µM	7.35 µM	3.4 µM	7.34 µM	3.71 µM
CCOC1OC(=O)c2cc3ccc4c(c3c(-c3ccc5c(c3)OCO5)c21)OCO4 (stereo not given)	> 84.5 µM	> 100 µM	> 100 µM	> 100 µM	> 100 µM	> 100 µM	> 100 µM	> 100 µM	> 100 µM	> 100 µM	> 100 µM	> 100 µM	> 100 µM	6.9 µM	5.2 µM	> 59.2 µM	> 100 µM	79.3 µM	> 100 µM	> 100 µM
O=c1[nH]nc(Cc2ccccc2)n1/N=C/c1ccccc1O	> 100 µM	> 100 µM	> 100 µM	99.8 µM	> 100 µM	> 100 µM	> 100 µM	> 100 µM	> 100 µM	> 100 µM	> 100 µM	> 100 µM	> 100 µM	> 100 µM	> 100 µM	> 100 µM	> 100 µM	> 100 µM	> 100 µM	> 100 µM
